Measured values from patent EP0073997A1, “Substituted 2-amino-3,4-dihydro-pyridine derivatives, process for their preparation and their use in medicines” (BAYER AG, priority 1981, dated 1983).

These compounds were tested on Wistar-Ratten (assay: Cholesterol load test: liver cholesterol after oral cholesterol load). Conditions: Dosis 10 mg/kg p.o.; given together with cholesterol in 0,75 % tragacanth suspension; liver cholesterol after 24 h.
Type: in vivo
Experimental: Cholesterol- bzw. Fettbelastungstests wurden an nüchternen männlichen oder weiblichen Wistar-Ratten mit einem Körpergewicht zwischen 130-230 g durchgeführt.
Cholesterol-Belastung: • Cholesterol und die zu prüfende Substanz wurden in 0,75 %iger Traganth-Suspension gleichzeitig oral appliziert. Nach 24 h wurden die Tiere getötet und der Cholesterolgehalt in der Leber bestimmt. Cholesterol wurde nach der Liebermann-Burchard-Methode mit der Testkombination von Boehringer Mannheim bestimmt. Kontrolltiere erhielten ein entsprechendes Volumen Cholesterol-Traganth-Suspension ohne Testsubstanz. Zur Kontrolle des Cholesterol-Anstiegs als Folge der Cholesterol-Belastung wurde einer weiteren Kontrollgruppe Traganth-Suspension ohne Cholesterol oral appliziert.

| Compound | Verminderung des Lebercholesterinanstiegs im Vergleich zur Kontrolle nach oraler Cholesterinbelastung in Prozent |
| --- | --- |
| 6-Methyl-2-(4-phenylpiperazino)-4,5-bis(2-pyrrolidinomethylphenyl)-3,4-dihydropyridin [Beispiel 18] | 34,1% |
| Clc1ccc(C2CC(N3CCN(c4ccccc4)CC3)=NC3=C2c2ccccc2CC3)cc1 (stereo not drawn) [Beispiel 1, 4-(4-Chlorphenyl)-2-(4-phenylpiperazino)-3,4,5,6-tetrahydronaphthalino(a)pyridin] | 51,7% |
| Clc1ccc(C2=CC(c3ccc(Cl)cc3)CC(N3CCN(c4ccccc4)CC3)=N2)cc1 (stereo not drawn) [Beispiel 8] | 21,3% |
| CC(=O)OCc1ccc(C2=C(C)N=C(N3CCN(c4ccccc4)CC3)CC2c2ccc(COC(C)=O)cc2)cc1 (stereo not drawn) [Beispiel 9] | 17,7% |
| CC1=C(c2cccc(CO)c2)C(c2cccc(CO)c2)CC(N2CCN(c3ccccc3)CC2)=N1 (stereo not drawn) [Beispiel 13] | 37,9% |
| CC1=C(c2ccc(N(C)C)cc2)C(c2ccc(CO)cc2)CC(N2CCN(c3ccccc3)CC2)=N1 (stereo not drawn) [Beispiel 16] | 36,7% |
| CC1=C(c2ccccc2)C(c2cccc(CN3CCCC3)c2)CC(N2CCN(c3ccccc3)CC2)=N1 (stereo not drawn) [Beispiel 17, 6-Methyl-5-phenyl-2-(4-phenylpiperazino)-4-(3-pyrro-lidinomethylphenyl)-3,4-dihydropyridin] | 22,9% |
| CC1=C(c2ccccc2)C(c2cccc(COC(=O)CCCC(=O)O)c2)CC(N2CCN(c3ccccc3)CC2)=N1 (stereo not drawn) [Beispiel 19, 4-(3-(5-Carboxybutyryloxymethyl)-phenyl)-6-methyl-5-phenyl-2-(4-phenylpiperazino)-3,4-dihydropyridin] | 36,3% |
| C=CCC1C(N2CCN(c3ccccc3)CC2)=NC(C)=C(c2ccccc2)C1c1ccccc1 (stereo not drawn) [Beispiel 21] | 34,9% |
| COc1ccc(C2=C(C)N=C(N3CCCC3)C(C)C2c2ccc(OC)cc2)cc1 (stereo not drawn) [Beispiel 25] | 22,6% |
| CC1=C(c2ccc(N(C)C)cc2)C(c2ccc(Cl)cc2)C(CC(=O)OC(C)(C)C)C(N2CCN(c3ccccc3)CC2)=N1 (stereo not drawn) [Beispiel 29] | 12,0% |
| CC1=C(c2ccccc2)C(c2ccccc2)C(CO)C(N2CCN(c3ccccc3)CC2)=N1 (stereo not drawn) [Beispiel 34] | 23,9% |
